In patent publication US4704393A, “1-substituted 5-fluorouracil useful for inhibiting the aggregation of platelets” (Terumo Kabushiki Kaisha, priority 1983, dated 1987):
Like-named read-outs stand apart in the source and are kept apart here.

Legend:
P388 cells = assay: Chemotherapeutic function: life elongation ratio (ILS %) of mice intra-abdominally transplanted with P388 cells; settings: for toxicity compared with 5-FU in P388-bearing mice: 50 mg/kg/day (Example 1 compound), 70 mg/kg/day (Examples 2 and 3 compounds); for chemotherapeutic function compared with 5-FU: P388 mice, Tables 1 and 2; for ILS (%) / Incremental Life Support ILS (%): intra-abdominal, once daily; for Incremental Life Support ILS (%): five consecutive days
Description: To CDFl mice (males five weeks old), 1×10^6 P388 cells/mouse were intra-abdominally transplanted.
By following the procedure described above, each suspension of 0.5% of 1-(5,8,11,14,17-eicosapentaenoyloxy-meyhyl)-5-fluorouracil of Example 2 and 0.5% of 1-(4,7,10,13,16,19-docosahexenoyloxymethyl)-5-fluorouracil of Example 3 in carboxymethyl celloulose was intra-abdominally administered once daily to other mice of the same description to test for life elongation ratio.

[1] = system: platelet aggregation induced by the arachidonic acid; assay: Platelet aggregation inhibition in rabbit PRP, induced by arachidonic acid; assay type: cell-based; settings: Oryctolagus cuniculus
Description: (§1) With a syringe containing an aqueous 3.8% sodium citrate solution (one volume), blood (nine volumes) was collected from a rabbit through the carotid artery. For this blood, blood plasma abounding with blood platelets (PRP: 500,000/μ1) was obtained by centrifugal separation. The compound of the present invention was used on the PRP, with arachidonic acid or collagen as a coagulation inducer, to test for plastocytic coagulation depressing function.
as §1, with “From” for “For”, “400,000/μ)” for “500,000/μ1)”, “an aggregation” for “a coagulation”, “platelet aggregation inhibiting” for “plastocytic coagulation depressing”

[2] = system: platelet aggregation induced by collagen; assay: Platelet aggregation inhibition in rabbit PRP, induced by collagen; assay type: cell-based; settings: Oryctolagus cuniculus, collagen 25 μg/ml
Description: as §1
as §1, with “From” for “For”, “400,000/μ)” for “500,000/μ1)”, “an aggregation” for “a coagulation”, “platelet aggregation inhibiting” for “plastocytic coagulation depressing”

in vivo = settings: mouse, ip
Description: To ICR mice (male, seven weeks old), 1-(9,12,15-octadecatrienoyloxymethyl)-5-fluorouracil, 1-(5,8,11,14,17-eicosapentaenoyloxymethyl)-5-fluorouracil, and 1-(4,7,10,13,16,19-docosahexenoyloxymethyl)-5-fluorouracil were intra-abdominally administered to test for acute toxicity.

[3] = arachidonic acid 80 μM, rabbit PRP 400,000/μ, read-out: 50% depression concentration (IC50) on platelet aggregation

Row | Compound | toxicity compared with 5-FU in P388-bearing mice (P388 cells) | chemotherapeutic function compared with 5-FU (P388 cells) | ILS (%) (P388 cells; Table 2, 3 mg/kg/day) | ILS (%) (P388 cells; Table 2, 10 mg/kg/day) | ILS (%) (P388 cells; Table 2, 30 mg/kg/day) | ILS (%) (P388 cells; Table 2, 70 mg/kg/day) | ILS (%) (P388 cells; Table 2, 100 mg/kg/day) | IC50 [1, 3] | IC50 ([2]; rabbit PRP 400,000/μ) | LD50 (in vivo) | Incremental Life Support ILS (%) (P388 cells; Table 1, 5 mg/kg/day) | Incremental Life Support ILS (%) (P388 cells; Table 1, 10 mg/kg/day) | Incremental Life Support ILS (%) (P388 cells; Table 1, 20 mg/kg/day) | Incremental Life Support ILS (%) (P388 cells; Table 1, 30 mg/kg/day) | IC50 ([2]; rabbit PRP 500,000/μl) | also measured
1 | CCC=CCC=CCC=CCC=CCC=CCC=CCCC(=O)OCn1cc(F)c(=O)[nH]c1=O [1-(4,7,10,13,16,19-docosahexenoyloxymethyl)-5-fluorouracil] | less toxic than 5-FU | equal to or better than the function of 5-FU | 17% | 34% | 47% | 30% | 22% | 54 µM | 90 µM | > 500 mg/kg | – | – | – | – | – | –
2 | CCC=CCC=CCC=CCC=CCC=CCCCC(=O)OCn1cc(F)c(=O)[nH]c1=O [1-(5,8,11,14,17-eicosapentaenoyloxymethyl)-5-flourouracil] | less toxic than 5-FU | equal to or better than the function of 5-FU | 18% | 27% | 40% | 36% | 19% | 120 µM | 710 µM | > 500 mg/kg | – | – | – | – | – | –
3 | CC/C=C\C/C=C\C/C=C\CCCCCCCC(=O)OCn1cc(F)c(=O)[nH]c1=O [1-(9,12,15-octadecatrienoyloxymethyl)-5-fluorouracil] | less toxic than 5-FU | equal to or better than the function of 5-FU | – | – | – | – | – | – | – | > 500 mg/kg | 23% | 52% | 71% | 64% | 34 µM | Incremental Life Support ILS (%) (P388 cells; Table 1, 50 mg/kg/day): 47%; Incremental Life Support ILS (%) (P388 cells; Table 1, 100 mg/kg/day): 7%; IC50 ([1]; arachidonic acid 70 μM, rabbit PRP 500,000/μl, read-out: 50% inhibition concentration (IC50) on platelet aggregation): 640 µM
4 | O=c1[nH]cc(F)c(=O)[nH]1 [Example 5-FU, 5-fluorouracil] | – | – | 20% | 38% | -8% | – | – | > 1000 µM | ≥ 1000 µM | – | 35% | 47% | 62% | -17% | 530 µM | days of survival compared with control group (P388 cells; 30 mg/kg/day): smaller numbers of days of survival on the mice treatd than the mice of the control group; inhibition at 1000 µM ([1]; arachidonic acid 70 μM, rabbit PRP 500,000/μl, at 1×10^-3 M): 4%; LD50 (in vivo; in vivo): 235 mg/kg
